Assay results taken from ChEMBL document CHEMBL5241069, “A key review on oxadiazole analogs as potential methicillin-resistant Staphylococcus aureus (MRSA) activity: Structure-activity relationship studies” (Eur J Med Chem, 2021).
In brackets after ≈: the same amount, converted by molar mass.

Assays:
Staphylococcus aureus [1] = assay: Antibacterial activity against methicillin resistant Staphylococcus aureus MTCC 84 incubated for 24 hrs by serial dilution method; format: functional
Staphylococcus aureus [2] = assay: Antimicrobial activity against methicillin resistant Staphylococcus aureus 2658 RCMB assessed as inhibition of bacterial growth incubated for 20 hrs by CLSI protocol based broth microdilution method; format: functional
Staphylococcus aureus [3] = assay: Antibacterial activity against methicillin resistant Staphylococcus aureus assessed as inhibition zone by CLSI protocol based agar disc diffusion method; format: functional
Staphylococcus aureus [4] = assay: Antimicrobial activity against methicillin resistant Staphylococcus aureus ATCC 43300 assessed as inhibition of bacterial growth incubated for 18 to 24 hrs by broth microdilution method; format: functional; conditions: time 18-24 hrs
Staphylococcus aureus [5] = assay: Antimicrobial activity against methicillin resistant Staphylococcus aureus ATCC 25923 assessed as inhibition of bacterial growth by agar diffusion cup plate method; format: functional
Staphylococcus aureus [6] = assay: Potency index, ratio of ciprofloxacin MIC to test compound MIC for antibacterial activity against methicillin resistant Staphylococcus aureus ATCC 43300 assessed as inhibition of bacterial growth incubated for 24 to 48 hrs by spectrophotometric analysis; format: functional; conditions: time 24-48 hrs
Staphylococcus aureus [7] = assay: Potency index, ratio of chloramphenicol MIC to test compound MIC for antibacterial activity against methicillin resistant Staphylococcus aureus ATCC 43300 assessed as inhibition of bacterial growth incubated for 24 to 48 hrs by spectrophotometric analysis; format: functional; conditions: time 24-48 hrs
Staphylococcus aureus [8] = assay: Antibacterial activity against methicillin resistant Staphylococcus aureus ATCC 43300 assessed as inhibition of bacterial growth incubated for 24 to 48 hrs by spectrophotometric analysis; format: functional; conditions: time 24-48 hrs
Staphylococcus aureus [9] = assay: Antimicrobial activity against methicillin resistant Staphylococcus aureus A252 assessed as inhibition of bacterial growth incubated for 16 to 20 hrs by CLSI protocol based method; format: functional; conditions: time 16-20 hrs
Staphylococcus aureus [10] = assay: Antimicrobial activity against Staphylococcus aureus Newman assessed as inhibition of bacterial growth incubated for 16 to 20 hrs by CLSI protocol based method; format: functional; conditions: time 16-20 hrs
Staphylococcus aureus [11] = assay: Antimicrobial activity against methicillin resistant Staphylococcus aureus USA300 assessed as inhibition of bacterial growth incubated for 16 to 20 hrs by CLSI protocol based method; format: functional; conditions: time 16-20 hrs
Staphylococcus aureus [12] = assay: Antimicrobial activity against methicillin resistant Staphylococcus aureus 1 assessed as inhibition of bacterial growth incubated for 16 to 20 hrs by CLSI protocol based Muller-Hinton broth method; format: functional; conditions: time 16-20 hrs
Staphylococcus aureus [13] = assay: Antimicrobial activity against methicillin resistant Staphylococcus aureus 2 assessed as inhibition of bacterial growth incubated for 16 to 20 hrs by CLSI protocol based Muller-Hinton broth method; format: functional; conditions: time 16-20 hrs
Staphylococcus aureus [14] = assay: Antimicrobial activity against methicillin resistant Staphylococcus aureus 3 assessed as inhibition of bacterial growth incubated for 16 to 20 hrs by CLSI protocol based Muller-Hinton broth method; format: functional; conditions: time 16-20 hrs
[15] = Cytotoxicity against rat NRK-52E cells assessed as inhibition of cell growth incubated for 24 hrs by CCK-8 assay; format: toxicity, cell-based
Staphylococcus aureus [16] = assay: Antibacterial activity against methicillin resistant Staphylococcus aureus MW2 assessed as inhibition of bacterial growth incubated for 16 to 20 hrs by CLSI protocol based Mueller-Hinton broth method; format: functional; conditions: time 16-20 hrs
Staphylococcus aureus [17] = assay: Antibacterial activity against methicillin resistant Staphylococcus aureus USA300 assessed as inhibition of bacterial growth incubated for 16 to 20 hrs by CLSI protocol based Mueller-Hinton broth method; format: functional; conditions: time 16-20 hrs
Staphylococcus aureus [18] = assay: Antibacterial activity against methicillin resistant Staphylococcus aureus incubated for 24 hrs by broth microdilution method; format: functional
Staphylococcus aureus [19] = assay: Antibiofilm activity against methicillin resistant Staphylococcus aureus ATCC 43866 assessed as inhibition of biofilm formation incubated for 18 to 24 hrs by tissue culture plate method; format: functional; conditions: time 18-24 hrs
Staphylococcus aureus [20] = assay: Potency index, ratio of vancomycin MIC to test compound MIC for antibacterial activity against methicillin resistant Staphylococcus aureus ATCC 43866 assessed as inhibition of biofilm formation incubated for 18 to 24 hrs by tissue culture plate method; format: functional; conditions: time 18-24 hrs

In the case of CN[C@@H]1[C@H](O[C@H]2[C@H](O[C@H]3[C@H](O)[C@@H](O)[C@H](N=C(N)N)[C@@H](O)[C@@H]3N=C(N)N)O[C@@H](C)[C@]2(O)C=O)O[C@@H](CO)[C@H](O)[C@H]1O [STREPTOMYCIN], the MIC (Staphylococcus aureus [1]) is reported as greater than 100 µg/mL.
Compound CNC(=N)Nc1nnc(-c2sc(-c3ccc4ccccc4c3)nc2C)o1 has an MIC (Staphylococcus aureus [2]) of 3.9 µg/mL (≈ 10.7 µM).
In the case of O=P(Oc1ccccc1)(Oc1ccccc1)C(Nc1nnc(-c2cccc(Br)n2)o1)c1ccc(F)c(Cl)c1 (stereo not drawn), the “inhibition zone (IZ)” value (Staphylococcus aureus [3]) is reported as 17 mm.
C=C(C)C(=O)OCC[N+](CC)(CC)Cc1nnc(CCCCc2nnc(C[N+](CC)(CC)CCOC(=O)C(=C)C)o2)o1.[Cl-].[Cl-] showed an MIC (Staphylococcus aureus [4]) of 0.98 µg/mL.
In the case of COc1ccc(-c2nnc(C)o2)cc1, the MIC (Staphylococcus aureus [5]) is reported as 25 µg/mL (≈ 131 µM).
GENTAMICIN showed an MIC (Staphylococcus aureus [4]) of 100 µg/mL.
O=C(/C=C/c1ccc(F)cc1)N1N=C(c2ccncc2)OC1c1cn(-c2ccccc2)nc1-c1ccc(F)cc1 (stereo not drawn) showed a Ratio (Staphylococcus aureus [6]) of 4, a Ratio (Staphylococcus aureus [7]) of 8 and an MIC (Staphylococcus aureus [8]) of 6.25 µg/mL (≈ 11.7 µM).
O=C(Nc1nnc(-c2ccc(F)cc2)o1)c1cccc(C(F)(F)F)c1 showed an MIC (Staphylococcus aureus [9]) of 0.7 µg/mL (≈ 1.99 µM), an MIC (Staphylococcus aureus [10]) of 0.7 µg/mL (≈ 1.99 µM) and an MIC (Staphylococcus aureus [11]) of 0.35 µg/mL (≈ 0.996 µM).
CCn1cc(C(=O)O)c(=O)c2cc(F)c(N3CCN(Cc4nnc(-c5ccc(C#N)cc5)o4)CC3)cc21 showed an MIC (Staphylococcus aureus [12]) of 1 µg/mL (≈ 1.99 µM), an MIC (Staphylococcus aureus [13]) of 1 µg/mL (≈ 1.99 µM) and an MIC (Staphylococcus aureus [14]) of 2 µg/mL (≈ 3.98 µM).
With O=P(Oc1ccccc1)(Oc1ccccc1)C(Nc1nnc(-c2cccc(Br)n2)o1)c1cccc(F)c1 (stereo not drawn) the “inhibition zone (IZ)” value (Staphylococcus aureus [3]) was 17 mm.
O=C(/C=C/c1cccc([N+](=O)[O-])c1)N1N=C(c2ccncc2)OC1c1cn(-c2ccccc2)nc1-c1ccc(F)cc1 (stereo not drawn) showed an MIC (Staphylococcus aureus [8]) greater than 50 µg/mL.
In the case of O=C(/C=C/c1ccc([N+](=O)[O-])cc1)N1N=C(c2ccncc2)OC1c1cn(-c2ccccc2)nc1-c1ccc(F)cc1 (stereo not drawn), the MIC (Staphylococcus aureus [8]) is reported as 12.5 µg/mL (≈ 22.3 µM).
CCn1cc(C(=O)O)c(=O)c2cc(F)c(N3CCN(Cc4nnc(-c5cccc(OC)c5)o4)CC3)cc21 gave an MIC (Staphylococcus aureus [12]) of 0.5 µg/mL (≈ 0.985 µM), an MIC (Staphylococcus aureus [13]) of 0.25 µg/mL (≈ 0.493 µM) and an IC50 at 24 h [15] greater than 200 µg/mL. The MIC (Staphylococcus aureus [14]) was 1 µg/mL (≈ 1.97 µM).
In the case of O=P(Oc1ccccc1)(Oc1ccccc1)C(Nc1nnc(-c2cccc(Br)n2)o1)c1ccc(Cl)c(F)c1 (stereo not drawn), the “inhibition zone (IZ)” value (Staphylococcus aureus [3]) is reported as 17 mm.
CCn1cc(C(=O)O)c(=O)c2cc(F)c(N3CCN(Cc4nnc(-c5ccccc5C)o4)CC3)cc21 showed an MIC (Staphylococcus aureus [12]) of 1 µg/mL (≈ 2.03 µM), an MIC (Staphylococcus aureus [13]) of 0.5 µg/mL (≈ 1.02 µM) and an MIC (Staphylococcus aureus [14]) of 2 µg/mL (≈ 4.07 µM).
In the case of O=[N+]([O-])c1ccc(C(Nc2nnc(-c3cccc(Br)n3)o2)P(=O)(Oc2ccccc2)Oc2ccccc2)cc1F (stereo not drawn), the “inhibition zone (IZ)” value (Staphylococcus aureus [3]) is reported as 17 mm.
COc1cc(OC)cc(-c2nnc(NC(=O)c3ccc(S(=O)(=O)C4COCC4(C)C)cc3)o2)c1 (stereo not drawn) showed an MBC (Staphylococcus aureus [16]) of 16 µg/mL (≈ 32.8 µM) and an MBC (Staphylococcus aureus [17]) of 8 µg/mL (≈ 16.4 µM).
Cc1nc(-c2ccc3ccccc3c2)sc1-c1nnc(NC(=N)N2CCNCC2)o1 showed an MIC (Staphylococcus aureus [2]) of 1.95 µg/mL (≈ 4.65 µM).
In the case of Nc1scc(-c2ccc(F)cc2)c1-c1nnc(S)o1, the MIC (Staphylococcus aureus [18]) is reported as 8 µg/mL (≈ 27.3 µM).
Compound Cn1c(-c2nnc(-c3ccc(Cl)cc3Cl)o2)cc(Br)c1Br has an MIC (Staphylococcus aureus [19]) of 0.78 µg/mL (≈ 1.73 µM) and a Ratio (Staphylococcus aureus [20]) of 4.
